Experiments:
Type in all cases: in vivo
[1] = test system: Solanum nigrum (SOLNI); experiment: Post-emergence biological efficacy, glasshouse pot test; conditions: 312 h, 1,000 g/ha, evaluated after 13 days, 100=total damage, 0=no damage, read-out: Percentage damage caused to weed species, post-emergence, SOLNI
Description: (§1) Seeds of Alopecurus myosuroides (ALOMY), Setaria faberi (SETFA), Echinochloa crus-galli (ECHCG), Solanum nigrum (SOLNI), Amaranthus retroflexus (AMARE) and Ipomea hederaceae (IPOHE) were sown in standard soil in pots. After cultivation for 8 days under controlled conditions in a glasshouse (at 24/16° C., day/night; 14 hours light; 65% humidity), the plants were sprayed with an aqueous spray solution derived from the formulation of the technical active ingredient in acetone/water (50:50) solution containing 0.5% Tween 20 (polyoxyethylene sorbitan monolaurate, CAS RN 9005-64-5) to give a final dose of 1000 or 250 g/ha of test compound. The test plants were then grown on under controlled conditions in a glasshouse (at 24/16° C., day/night; 14 hours light; 65% humidity) and watered twice daily. After 13 days the test was evaluated (100=total damage to plant; 0=no damage to plant).

[2] = test system: Amaranthus retroflexus (AMARE); experiment: as above; conditions: 312 h, 1,000 g/ha, evaluated after 13 days, 100=total damage, 0=no damage, read-out: Percentage damage caused to weed species, post-emergence, AMARE
Description: as §1

[3] = test system: Echinochloa crus-galli (ECHCG); experiment: as above; conditions: 312 h, 1,000 g/ha, evaluated after 13 days, 100=total damage, 0=no damage, read-out: Percentage damage caused to weed species, post-emergence, ECHCG
Description: as §1

[4] = test system: Alopecurus myosuroides (ALOMY); experiment: as above; conditions: 312 h, 1,000 g/ha, evaluated after 13 days, 100=total damage, 0=no damage, read-out: Percentage damage caused to weed species, post-emergence, ALOMY
Description: as §1

[5] = test system: Ipomea hederaceae (IPOHE); experiment: as above; conditions: Ipomoea hederacea, 312 h, 1,000 g/ha, evaluated after 13 days, 100=total damage, 0=no damage, read-out: Percentage damage caused to weed species, post-emergence, IPOHE
Description: as §1

[6] = test system: Setaria faberi (SETFA); experiment: as above; conditions: 312 h, 1,000 g/ha, evaluated after 13 days, 100=total damage, 0=no damage, read-out: Percentage damage caused to weed species, post-emergence, SETFA
Description: as §1

[7] = test system: Solanum nigrum (SOLNI); experiment: Pre-emergence biological efficacy, glasshouse pot test; conditions: 312 h, 1,000 g/ha, evaluated after 13 days, 100=total damage, 0=no damage, read-out: Percentage damage caused to weed species, pre-emergence, SOLNI
Description: (§2) Seeds of Alopecurus myosuroides (ALOMY), Setaria faberi (SETFA), Echinochloa crus-galli (ECHCG), Solanum nigrum (SOLNI), Amaranthus retroflexus (AMARE) and Ipomea hederaceae (IPOHE) were sown in standard soil in pots. After cultivation for one day under controlled conditions in a glasshouse (at 24/16° C., day/night; 14 hours light; 65% humidity), the plants were sprayed with an aqueous spray solution derived from the formulation of the technical active ingredient in acetone/water (50:50) solution containing 0.5% Tween 20 (polyoxyethylene sorbitan monolaurate, CAS RN 9005-64-5) to give a final dose of 1000 or 250 g/ha of test compound. The test plants were then grown under controlled conditions in the glasshouse (at 24/16° C., day/night; 14 hours light; 65% humidity) and watered twice daily. After 13 days the test was evaluated (100=total damage to plant; 0=no damage to plant).

[8] = test system: Amaranthus retroflexus (AMARE); experiment: as above; conditions: 312 h, 1,000 g/ha, evaluated after 13 days, 100=total damage, 0=no damage, read-out: Percentage damage caused to weed species, pre-emergence, AMARE
Description: as §2

[9] = test system: Echinochloa crus-galli (ECHCG); experiment: as above; conditions: 312 h, 1,000 g/ha, evaluated after 13 days, 100=total damage, 0=no damage, read-out: Percentage damage caused to weed species, pre-emergence, ECHCG
Description: as §2

[10] = test system: Alopecurus myosuroides (ALOMY); experiment: as above; conditions: 312 h, 1,000 g/ha, evaluated after 13 days, 100=total damage, 0=no damage, read-out: Percentage damage caused to weed species, pre-emergence, ALOMY
Description: as §2

[11] = test system: Ipomea hederaceae (IPOHE); experiment: as above; conditions: Ipomoea hederacea, 312 h, 1,000 g/ha, evaluated after 13 days, 100=total damage, 0=no damage, read-out: Percentage damage caused to weed species, pre-emergence, IPOHE
Description: as §2

[12] = test system: Setaria faberi (SETFA); experiment: as above; conditions: 312 h, 1,000 g/ha, evaluated after 13 days, 100=total damage, 0=no damage, read-out: Percentage damage caused to weed species, pre-emergence, SETFA
Description: as §2

Row | SMILES | pest or weed control at 1000 g/ha [1] | pest or weed control at 1000 g/ha [2] | pest or weed control at 1000 g/ha [3] | pest or weed control at 1000 g/ha [4] | pest or weed control at 1000 g/ha [5] | pest or weed control at 1000 g/ha [6] | pest or weed control at 1000 g/ha [7] | pest or weed control at 1000 g/ha [8] | pest or weed control at 1000 g/ha [9] | pest or weed control at 1000 g/ha [10] | pest or weed control at 1000 g/ha [11] | pest or weed control at 1000 g/ha [12]
1 | COC(=O)c1nc(Cl)c(Cl)c(NCc2ccccc2[N+](=O)[O-])c1C [Compound 15-43, 5,6-Dichloro-3-methyl-4-[(2-nitrophenyl-methyl)-amino]-pyridine-2-carboxylic acid methyl ester] | 100% | 100% | 10% | 40% | 70% | 40% | 70% | 90% | 0% | 0% | 50% | 0%
2 | COC(=O)c1nc(Cl)c(Cl)c(NCc2ccccc2[N+](=O)[O-])c1C(F)(F)F [Compound 15-444, 5,6-dichloro-4-[(2-nitrophenyl-methyl)-amino]-3-trifluoromethyl-pyridine-2-carboxylic acid methyl ester] | 90% | 100% | 50% | 10% | 50% | 40% | 30% | 30% | 0% | 0% | 50% | 0%
3 | COC(=O)c1nc(-c2ccc(Cl)c(OC)c2F)cc(NCc2ccc(OC)cc2OC)c1Cl [Compound 22-164, 3-Chloro-6-(4-chloro-2-fluoro-3-methoxy-phenyl)-4-[(2,4-dimethoxyphenyl-methyl)-amino]-pyridine-2-carboxylic acid methyl ester] | 90% | 100% | 60% | 0% | 70% | 60% | 80% | 80% | 60% | 20% | 70% | 10%
4 | COC(=O)c1nc(Cl)cc(NCc2ccc3c(c2)OCO3)c1Cl [Compound 24-2, 3,6-Dichloro-4-[(3,4-methylenedioxy-phenylmethyl)-amino]-pyridine-2-carboxylic acid methyl ester] | 100% | 100% | 20% | 50% | 70% | 80% | 100% | 100% | 0% | 10% | 80% | 70%
5 | COC(=O)c1nc(Cl)cc(NCc2ccco2)c1Cl [Compound 26-2, 3,6-dichloro-4-[(furan-2-ylmethyl)-amino]-pyridine-2-carboxylic acid methyl ester] | 100% | 100% | 30% | 40% | 60% | 90% | 100% | 100% | 30% | 70% | 90% | 90%

From patent publication US20120100990A1, “4 -AMINOPICOLINATES AND THEIR USE AS HERBICIDES” (SYNGENTA CROP PROTECTION LLC, priority 2009, published 2012)
